The text below walks through data of US11110080B2, “Small molecule inhibitors of bacterial efflux pumps and methods of using same” (The Regents of the University of Colorado, a body Corporate, priority 2017, dated 2021).

“Also recorded” adds a separate entry of the source. Like-named read-outs stand apart in the source and are kept apart here. Peptide text beside a SMILES is read from it. * marks the point of attachment. βNA = c1ccc2cc(N*)ccc2c1

Data set [1] can be described thus: Log D, solubility and predicted bioavailability. It counts as physicochemical. To be noted: high concentrations.
Data set [2] concerns S.Tm wild-type SL1344, MAR1 and S10801. In words: microbe, parasite or virus in culture. It counts as cell-based, Salmonella enterica serovar Typhimurium. As to conditions: for MIC: Salmonella enterica. Here is the method:
Increased expression or function of efflux pumps often contributes to clinical multidrug resistance. Therefore, whether the EPMs re-sensitize two multidrug resistant strains of S.Tm to tetracycline was tested. Tetracycline is an antibiotic exported by AcrAB. The MAR1 strain is derived from wild-type SL1344 was selected by exposure to tetracycline, and has increased expression of the AcrAB efflux pump. S10801 is an MDR strain isolated from the mesenteric lymph node of a septic calf and is resistant to tetracycline, ampicillin, chloramphenicol, nalidixic acid, and triple sulfa. The basis of multi-drug resistance in this strain is unknown.
Overnight Salmonella cultures were washed 3 times in PBS and diluted to an OD of 0.01 in Mueller Hinton Broth in 96-well flat bottom plates. Compound was added using a pin tool (CyBio) or manually, yielding a final concentration of no more than 1% DMSO. Plates were grown at 37° C. shaking and OD600 was monitored using a BioTek Eon incubator shaker microplate absorbance reader. For experiments in defined media, bacteria were grown in M9 minimal media supplemented with 100 mM Tris pH 7.4, 0.35% glycerol, 0.002% histidine, 10 mM MgCl2, and 0.1% casamino acids. Where indicated, media was supplemented with 5 μg/ml polymyxin B or 0.2 mM H2O2. For experiments with LL-37, bacteria were grown in M9 minimal media supplemented with 0.4% dextrose, 0.004% histidine, 1 mM MgSO4, and 5 μg/ml LL-37. For checkerboard assays, MIC was defined as the concentration at which no growth was visually observed.

The test system of data set [3] is S.Tm efflux pumps. As to the kind of experiment: Nile Red efflux assay. It counts as cell-based, Salmonella enterica serovar Typhimurium. The text has this:
Because Hoechst and other dyes commonly used to assess efflux bind cellular components, direct measurement of efflux is not possible using these methods; instead, the Hoechst assay measures dye accumulation, the net result of entry and efflux. Further, the slow off-rate of Hoechst entails that efflux pumps have no effect on dye already bound to DNA. As a result, compounds which increase Hoechst accumulation may actually enhance dye entry by altering porins or disrupting the membrane. To more specifically measure efflux pump activity, a second technique was employed using the dye Nile Red, a lipophilic membrane-partitioning dye which fluoresces in nonpolar environments. Because Nile Red is not known to bind cellular components, to directly observe efflux cells were preloaded with the dye in the absence of glucose to reduce efflux pump activity (FIG. 7A). Upon addition of glucose, bacteria rapidly effluxed Nile Red and fluorescence returned to baseline levels (FIG. 7B, top panel). […] The initial measured fluorescence was lower for DMSO-treated cells (upper dotted line) than for PAβN-treated cells due to glucose-independent efflux during sample preparation (FIG. 8A). Next, it was determined whether efflux pump activity is restored after removal of PAβN. Bacteria were incubated with compound for 15 minutes, pelleted and resuspended in buffer lacking compound, and then stimulated with glucose (FIGS. 7C, 7E).
Nile Red assays were adapted from an established protocol. Briefly, overnight Salmonella cultures were grown in Mueller-Hinton cation-adjusted broth (Sigma), washed, and resuspended at an OD600 of 2.0. Cells were incubated in 10 μM Nile Red for 3 hours at 37° C. with aeration, then moved to room temperature for 1 hour. After pelleting at 2000× g, dye-loaded cells were aliquoted and combined with compound at the indicated concentrations. Two hundred microliters was loaded into 96-well black walled plates (Greiner) and read using a Varioskan Flash Multimode Reader with 540 nm excitation and 625 nm emission filters. We observed that during loading into plates (˜20 minutes), bacteria were able to efflux Nile Red even in the absence of glucose (FIG. 8A). To activate efflux, glucose was added to a final concentration of 2 mM. In some experiments, bacteria were treated with drug for 15 minutes, pelleted at 16,000×g, resuspended in fresh buffer, and stimulated with 2 mM glucose. All wash and incubation steps were performed in PBS with 1 mM MgCl2; incubations were performed in glass tubes to reduce adhesion of Nile Red.

Data set [4] has as its system S.Tm efflux pumps. In words: Hoechst 33342 accumulation assay. To be noted: wild-type S.Tm, 60 minutes. The class given is cell-based, Salmonella enterica serovar Typhimurium. Here is the method:
Efflux pumps (EPs) represent a key pathogen virulence strategy to protect against host antimicrobials as well as therapeutic antibiotics. […] To uncover putative EPMs within our collection of hits, 58 repurchased compounds were screened in a Hoechst accumulation assay. Bacteria were incubated with Hoechst 33342, a dye which fluoresces when bound to DNA.
Hoechst accumulation assays were performed essentially as described in the literature. Briefly, overnight Salmonella cultures were washed 3 times in PBS and diluted to an OD of 0.1 in PBS with 2.5 μM Hoechst 33342 in the presence of the indicated concentrations of compounds. Fluorescence was monitored on a Biotek Synergy 2 with a 360/40 nm excitation filter and 460/40 nm emission filter. The maximum Hoechst fluorescence over 60 minutes of incubation was normalized to the signal from the equivalent number of heat-killed bacteria, after subtraction of autofluroescent signal determined from compound incubated in the absence of bacteria. Curve fitting to determine EC50s was performed using GraphPad Prism.

The subject of data set [5] is Salmonella enterica serovar Typhimurium (S.Tm) within RAW 264.7 murine macrophages. As to the kind of experiment: SAFIRE: fluorescence microscopy assay of S.Tm load within macrophages. The class given is cell-based. As to conditions: for hit status in SAFIRE screen: Maybridge HitFinder v11 library screened at 25 μM; for percentage of infected macrophages (validated hit): among the 309 hits. As to the method:
A high-content, high-throughput fluorescence microscopy-based screening platform to assay S.Tm load within macrophages was developed (FIG. 1A). RAW 264.7 murine macrophages, a widely used cell line for bacterial infection studies, were infected with bacteria in a standard gentamicin protection assay. The Salmonella expressing GFP driven by the sifB promoter was incubated with the compound beginning at 2 hours post-infection. At 18 hours post-infection, cells were stained with MitoTracker Red CMXRos as a marker of macrophage vitality and processed for fluorescence microscopy. Stained with DAPI. A MATLAB®-based algorithm was developed to quantify infection (FIG. 1B) and compared to statistics to describe infection. Percentage of infected cells was determined by counting the proportion of macrophages within an image with at least 2 GFP+ pixels. Infection area was calculated by normalizing the number of GFP+ pixels within a cell to the cell's total area, then averaging across all cells in an image. To evaluate the approach, 2 μg/ml rifampicin in 96-well and 384-well plates was tested in three independent replicates. The Z′-factor was employed as a measure of assay reproducibility. Numbers close to 1 indicated high reproducibility. For percentage of infected macrophages, the Z′-factor was 0.59 and 0.48 in 96-well and 384-well plates, respectively, compared with 0.66 and 0.38 for infection area. The optimal Z′-factor threshold for high-throughput screening was 0.5; however, values above 0 were considered marginal but feasible. Therefore, the percentage of infected macrophages statistic was used.
The 14,400 compound library Maybridge HitFinder™ v11 was screened, which has been extensively screened against mammalian and microbial targets. The library was screened in duplicate at 25 μM in 384-well plates (FIG. 1C). Data were normalized using the B-score method to remove positional variation. The significance of B-scores was calculated using a modified t-test assuming an inverse gamma distribution of variances. Using a dual threshold of B-score greater than 1 and standard deviation from the mean and p-value less than 0.05, 908 compounds (6.3%) were identified that decreased or increased the percentage of infected macrophages. […] Compounds that altered infection by at least 25% in 96-well plates were considered validated hits.
For high-throughput screening and validation, 7×10^3 macrophages in 40 μL or 3×10^4 macrophages in 100 μL were seeded in 384- or 96-well black-walled, glass-bottomed plates (Brooks Automation). […] Forty-five minutes after bacterial addition, 20 or 50 μL gentamicin was added to a final concentration of 40 μg/mL. […] At 2 hours post-infection, 200 or 500 nL compound was added using a pin tool (CyBio) to yield a final concentration of 25 μM. Each assay plate included rifampicin and DMSO controls. In some experiments, media was removed and replaced with fresh medium containing 40 μg/mL gentamicin and the indicated concentrations of drugs. At 17.5 hours post-infection, PBS containing MitoTracker Red CMXRos (Life Technologies) was added to yield a final concentration of 300 nM (384-well) or 100 nM (96-well). Thirty minutes later, 16% paraformaldehyde was added to a final concentration of 1-2% and incubated at room temperature for 15 minutes. Wells were washed twice with PBS and stained for 20 minutes with 1 μM DAPI; wells were washed twice and stored in 90% glycerol in PBS until imaging.
High magnification images were acquired on an Olympus IX81 inverted widefield microscope. For screening imaging, three-color images were acquired at 10× or 20× on a Cellomics ArrayScan VTI (Thermo) and exported to DIB files. At least two images were taken per well for all experiments. […]

Data set [6] deals with S.Tm. As to the kind of experiment: Swimming assay in soft agar (proton motive force). It counts as cell-based, Salmonella enterica serovar Typhimurium. As to conditions: 400× the MIC (4 μM). Here is the method: One way to inhibit efflux pumps is to disrupt the proton motive force, which is required for transport by some EPs. […] Bacteria were injected into the center of 0.25% agar plates, and 10 μl of compound was added to paper disks on the periphery. […] Also ampicillin and rifampicin were tested. We plotted the halo radius versus the concentration as the fold above the MIC (FIG. 9G). […] Next, it was determined whether PAβN inhibited swimming; PAβN is thought to disrupt membranes over long incubations. […] Finally, the EPMs at […] were tested (FIGS. 9D-F).
Saturated overnight cultures were diluted to an OD600 of 0.01 in LB and 1 μL was injected into the center of low agar (0.25%) LB plates. Ten microliters of the indicated compounds were added to sterilized Whatman paper disks (diameter 0.7 cm) placed equidistant from the plate center.

Turning to `Br.NC(N)=NCCCC(NC(=O)C(N)Cc1ccccc1)C(=O)Nc1ccc2ccccc2c1` (stereo not drawn) [PAβN, Phe-Arg β-naphthylamide, reference compound] (H-Phe-Arg-βNA; configuration not given here), in data set [1], the “solubility in cell culture media” value was “insolubility of high concentrations in cell culture media”. In addition, the “decrease of the tetracycline MIC” value in data set [2] (250 μM (⅛ MIC), both strains MAR1 and S10801) worked out at 4 fold. In data set [3] (500 μM), the “glucose-activated efflux of Nile Red” value is given as “inhibited glucose-activated efflux”. The “Nile Red efflux, dose response” value in data set [3] (7 minutes post-glucose addition) is “dose dependent inhibition of Nile Red efflux; also recorded: reduced the rate and extent of Nile Red export”. Besides, the “Nile Red efflux after washout of compound” value in data set [3] (15 minutes with compound, washed, then glucose) is “partially restored Nile Red export”. For the same molecule, the “Nile Red fluorescence in the absence of glucose (basal loss)” value in data set [3] (no glucose) was “inhibit basal loss of Nile Red”. Further, the “Hoechst accumulation / fluorescence” value in data set [4] is “Hoechst accumulation increased”; in data set [4] (listed as PaβN), “higher levels of fluorescence”.
For `O=C(NC1CCN(CCc2c[nH]c3ccccc23)CC1)c1ccccc1` [Indoramin], the “hit status in SAFIRE screen” value in data set [5] is on record as “Indoramin^1”.
Regarding `CN(C)[C@@H]1C(O)=C(C(N)=O)C(=O)[C@@]2(O)C(O)=C3C(=O)c4c(O)cccc4[C@@](C)(O)[C@H]3C[C@@H]12` [tetracycline], the “increase in tetracycline MIC over wild type” value was 2 fold in data set [2] (MAR1) and 64 fold in data set [2] (S10801). Also, the MIC in data set [2] (read-out: tetracycline MIC, MAR1) was 4 µg/mL; in data set [2] (read-out: tetracycline MIC, S10801) it was 128 µg/mL; in data set [2] (read-out: tetracycline MIC, wild-type S.Tm), 2 µg/mL.
Take `Nc1c2ccccc2nc2ccccc12` [9-aminoacridine]: in data set [5] (25 μM), the “percentage of infected macrophages (validated hit)” value is recorded as “decreased the percentage of infected macrophages”. Further, in data set [5], the “hit status in SAFIRE screen” value is reported as 9-aminoacridine^1.
For `CC1(C)S[C@@H]2[C@H](N)C(=O)N2[C@H]1C(=O)O` [6-aminopenicillinate], in data set [5] (25 μM), the “activity in the screen” value was “modest activity”. Further, the “average B-score from the screen” value in data set [5] (25 μM, duplicate, threshold −2.17) was −2.29. In data set [5], the “hit status in SAFIRE screen” value is 6-aminopenicillinate^2.
Consider `O=C(O)c1cn(C2CC2)c2cc(N3CCNCC3)c(F)cc2c1=O` [ciprofloxacin, reference compound], for which, in data set [6], the “halo in swimming assay” value was “formed a halo similar in size to that of CCCP”.
Take `O=C(N[C@H](CO)[C@H](O)c1ccc([N+](=O)[O-])cc1)C(Cl)Cl` [Chloramphenicol]: in data set [5] (25 μM), the “percentage of infected macrophages (validated hit)” value was “decreased the percentage of infected macrophages”. The “hit status in SAFIRE screen” value in data set [5] is recorded as “Chloramphenicol^1”.
For `CN(C)CCCN1c2ccccc2CCc2ccc(Cl)cc21` [Clomipramine], the “hit status in SAFIRE screen” value in data set [5] is given as “Clomipramine^1”.
